Assay [1] deals with T1, Peroxisome proliferator-activated receptor alpha (Homo sapiens, UniProt Q07869).
T1 sequence (Q07869 whole entry): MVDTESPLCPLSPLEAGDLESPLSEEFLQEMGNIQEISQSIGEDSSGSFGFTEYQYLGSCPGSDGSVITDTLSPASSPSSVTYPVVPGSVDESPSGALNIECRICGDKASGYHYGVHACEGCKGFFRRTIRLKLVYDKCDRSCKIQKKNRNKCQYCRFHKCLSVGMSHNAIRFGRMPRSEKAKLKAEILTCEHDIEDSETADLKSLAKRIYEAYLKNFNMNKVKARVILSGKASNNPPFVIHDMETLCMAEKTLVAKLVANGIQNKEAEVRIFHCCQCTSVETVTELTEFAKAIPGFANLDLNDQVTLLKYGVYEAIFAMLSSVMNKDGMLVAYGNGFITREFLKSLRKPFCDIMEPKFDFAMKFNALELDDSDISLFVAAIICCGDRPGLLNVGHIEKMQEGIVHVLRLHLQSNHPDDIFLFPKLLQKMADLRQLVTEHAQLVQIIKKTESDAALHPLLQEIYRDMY
Nature of the assay: Binding affinity of compound to human peroxisome proliferator-activated receptor alpha was determined by competitive binding assay.

Assay [2] addresses T1, Peroxisome proliferator-activated receptor alpha. As to the kind of experiment: Compound was tested for half maximum transactivation activity of human peroxisome proliferator-activated receptor alpha. Format: functional.

Molecules are shown by their SMILES.

The values below come from ChEMBL document CHEMBL1135028, “Enantio-dependent binding and transactivation of optically active phenylpropanoic acid derivatives at human peroxisome proliferator-activated receptor alpha” (Bioorg Med Chem Lett, 2002).

By EC50 is commonly meant the concentration that produces a half-maximal response. Consider `CC[C@@H](Cc1ccc(OC)c(C(=O)NCc2ccc(C(F)(F)F)cc2)c1)C(=O)O`, for which the response in assay [1] was half-maximal at 740 nM (EC50).

For `CC[C@H](Cc1ccc(OC)c(C(=O)NCc2ccc(C(F)(F)F)cc2)c1)C(=O)O`, the values for the EC50 in assay [1] and in assay [2] were 24000 nM and 1500 nM, respectively.
